Values after ≈ are worked out from the molar mass of the structure shown.
What was measured:
Assay type in all cases: cell-based
[1] = tested on: Acinetobacter baumannii (carbapenem-resistant clinical isolates; ATCC19606); test: MIC by micro broth dilution (CLSI), Acinetobacter baumannii; conditions: Acinetobacter baumannii; for MIC50 / MIC90: ATCC19606, Clinical strain; for MIC50: read-out: MIC50; for MIC90: read-out: MIC90; for MIC: Standard strain ATCC19606, read-out: MIC
Excerpt: (§1) The test bacteria were one strain of clinically isolated carbapenem-resistant Escherichia coli, two strains of carbapenem-resistant Acinetobacter baumannii, two strains of methicillin-resistant Staphylococcus aureus, two strains of sensitive Staphylococcus aureus, and 7 strains of Klebsiella pneumoniae. Duplicate strains isolated from the same patient were eliminated. There were also […] quality control strains Escherichia coli ATCC25922, Acinetobacter baumannii ATCC19606, Staphylococcus aureus ATCC29213, Klebsiella pneumoniae ATCC BAA-1705, ATCC 43816, ATCC BAA-2472, ATCC-BAA-1898, ATCC-BAA-1899, NCTC 13440 and ATCC-BAA-2470. There were 24 strains in total.
(§2) According to the recommendations of relevant documents of the American Clinical and Laboratory Standards Institute (CLSI), the micro broth dilution method was used to determine the MIC of the compounds of the present invention against clinically isolated strains. • 3.1 Formulation of antibacterial drug: All the compounds of the present invention were dissolved in DMSO. The drug concentration range was 128 mg/L to 0.06 mg/L. • 3.2 Culture medium: The drug susceptibility test used cation adjusted Mueller-Hinton broth (CAMHB). • 3.3 Amount of inoculum: The test bacteria cultured overnight were adjusted to 0.5 McFarland turbidity by the direct colony suspension method, and diluted 100 folds, the final inoculum amount was 10^5 CFU/mL. • 3.4 Culture conditions: The test bacteria were cultured at 35±2° C. for 20 hours in air.
(§3) The drug susceptibility test results were interpretated by reference to CLSI 2019 M100 29th edition criteria.
(§4) The quality control strains of the drug susceptibility test were Escherichia coli ATCC 25922, Acinetobacter baumannii ATCC 19606, Staphylococcus aureus ATCC 29213, Klebsiella pneumoniae ATCC BAA-1705, ATCC 43816, ATCC BAA-2472, ATCC-BAA-1898, ATCC-BAA-1899, NCTC 13440 and ATCC-BAA-2470.
(§5) The results of drug susceptibility test were statistically analyzed by WHONET software (version 5.6).

[2] = tested on: Staphylococcus aureus (methicillin-resistant and sensitive clinical isolates; ATCC29213); test: MIC by micro broth dilution (CLSI), Staphylococcus aureus; conditions: for MIC50 / MIC90: Clinical strain; for MIC50: read-out: MIC50; for MIC90: read-out: MIC90; for MIC: Standard strain ATCC29213, read-out: MIC
Excerpt: as §1, §2, §3, §4, §5

[3] = tested on: Escherichia coli (carbapenem-resistant clinical isolate; ATCC25922); test: MIC by micro broth dilution (CLSI), Escherichia coli; conditions: Escherichia coli; for MIC50 / MIC90: ATCC25922, Clinical strain; for MIC50: read-out: MIC50; for MIC90: read-out: MIC90; for MIC: Standard strain ATCC25922, read-out: MIC
Excerpt: as §1, §2, §3, §4, §5

SMILES	MIC50 [1] [mg/L]	MIC90 [1] [mg/L]	MIC50 [2] [mg/L]	MIC90 [2] [mg/L]	MIC [2] [mg/L]	MIC [1] [mg/L]	MIC50 [3] [mg/L]	MIC90 [3] [mg/L]	MIC [3] [mg/L]
Cc1cc([N+](=O)[O-])c(O)c2ncccc12 [Example 4, 5-Methyl-7-nitroquinolin-8-ol]	32 (≈ 157 µM)	32 (≈ 157 µM)							
CNc1c([N+](=O)[O-])c(O)c2ncccc2c1Cl [Example 7, 5-Chloro-6-(methylamino)-7-nitroquinolin-8-ol]	32 (≈ 126 µM)	64 (≈ 252 µM)	8 (≈ 31.5 µM)	16 (≈ 63.1 µM)	16 (≈ 63.1 µM)	64 (≈ 252 µM)	64 (≈ 252 µM)	128 (≈ 505 µM)	64 (≈ 252 µM)
O=[N+]([O-])c1ccc2c(OC(F)F)ccnc2c1O [Example 77, 4-(difluoromethoxy)-7-nitroquinolin-8-ol]	16 (≈ 62.5 µM)	32 (≈ 125 µM)	8 (≈ 31.2 µM)	8 (≈ 31.2 µM)	8 (≈ 31.2 µM)	8 (≈ 31.2 µM)	16 (≈ 62.5 µM)	128 (≈ 500 µM)	16 (≈ 62.5 µM)
C#Cc1ccnc2c(O)c([N+](=O)[O-])ccc12 [Example 80, 4-ethynyl-7-nitroquinolin-8-ol]	> 128	> 128	128 (≈ 598 µM)	128 (≈ 598 µM)	128 (≈ 598 µM)	> 128	> 128	> 128	> 128
O=[N+]([O-])c1ccc2c(C(F)F)ccnc2c1O [Example 81, 4-(difluoromethyl)-7-nitroquinolin-8-ol]	16 (≈ 66.6 µM)	32 (≈ 133 µM)	8 (≈ 33.3 µM)	16 (≈ 66.6 µM)	16 (≈ 66.6 µM)	16 (≈ 66.6 µM)	32 (≈ 133 µM)	128 (≈ 533 µM)	16 (≈ 66.6 µM)
O=[N+]([O-])c1ccc2c(Cl)c(-c3ccccc3)cnc2c1O [Example 82, 4-chloro-7-nitro-3-phenylquinolin-8-ol]	> 128	> 128	1 (≈ 3.33 µM)	1 (≈ 3.33 µM)	1 (≈ 3.33 µM)	128 (≈ 426 µM)	> 128	> 128	> 128
Cc1cnc2c(O)c([N+](=O)[O-])cc(Cl)c2c1 [Example 83, 5-chloro-3-methyl-7-nitroquinolin-8-ol]	32 (≈ 134 µM)	64 (≈ 268 µM)	4 (≈ 16.8 µM)	4 (≈ 16.8 µM)	4 (≈ 16.8 µM)	16 (≈ 67 µM)	128 (≈ 536 µM)	128 (≈ 536 µM)	32 (≈ 134 µM)
Cc1cnc2c(O)c([N+](=O)[O-])cc(C3CC3)c2c1 [Example 84, 5-cyclopropyl-3-methyl-7-nitroquinolin-8-ol]	64 (≈ 262 µM)	128 (≈ 524 µM)	4 (≈ 16.4 µM)	64 (≈ 262 µM)	4 (≈ 16.4 µM)	64 (≈ 262 µM)	> 128	> 128	64 (≈ 262 µM)
O=[N+]([O-])c1ccc2c(CN3CCCCC3)ccnc2c1O [Example 85, 7-nitro-4-(piperidin-1-yl-methyl)quinolin-8-ol]	32 (≈ 111 µM)	64 (≈ 223 µM)	16 (≈ 55.7 µM)	64 (≈ 223 µM)	64 (≈ 223 µM)	32 (≈ 111 µM)	64 (≈ 223 µM)	64 (≈ 223 µM)	64 (≈ 223 µM)
Cc1cnc2c(O)c([N+](=O)[O-])cc(F)c2c1 [Example 86, 5-fluoro-3-methyl-7-nitroquinolin-8-ol]	16 (≈ 72 µM)	32 (≈ 144 µM)	8 (≈ 36 µM)	> 128	8 (≈ 36 µM)	16 (≈ 72 µM)	32 (≈ 144 µM)	32 (≈ 144 µM)	16 (≈ 72 µM)
O=[N+]([O-])c1cc(CN2CCOCC2)c2cccnc2c1O [Example 87, 5-(morpholinomethyl)-7-nitroquinolin-8-ol acetate]	> 128	> 128	128	> 128	128	128	> 128	> 128	128
CCOC(=O)c1cnc2c(O)c([N+](=O)[O-])ccc2c1 [Example 88, ethyl 8-hydroxy-7-nitroquinoline-3-carboxylate]	> 128	> 128	4 (≈ 15.3 µM)	16 (≈ 61 µM)	16 (≈ 61 µM)	128 (≈ 488 µM)	> 128	> 128	> 128
O=[N+]([O-])c1ccc2c(CN3CCOCC3)ccnc2c1O [Example 89, 4-(morpholinomethyl)-7-nitroquinolin-8-ol]	128 (≈ 442 µM)	128 (≈ 442 µM)	64 (≈ 221 µM)	64 (≈ 221 µM)	64 (≈ 221 µM)	128 (≈ 442 µM)	> 128	> 128	> 128
CCN(CC)Cc1cnc2c(O)c([N+](=O)[O-])cc(Cl)c2c1.O=C(O)C(F)(F)F.O=C(O)C(F)(F)F [Example 90, 5-chloro-3-((diethylamino)methyl)-7-nitroquinolin-8-ol ditrifluoroacetate]	32	128	32	32	32	32	64	> 128	64
O=[N+]([O-])c1cc(CN2CCCCC2)c2cccnc2c1O [Example 91, 7-nitro-5-(piperidin-1-ylmethyl)quinolin-8-ol acetate]	> 128	> 128	> 128	> 128	> 128	128	> 128	> 128	128
O=[N+]([O-])c1cc(Cl)c2cc(CN3CCCCC3)cnc2c1O [Example 92, 5-chloro-7-nitro-3-(piperidin-1-ylmethyl)quinolin-8-ol]	32 (≈ 99.5 µM)	128 (≈ 398 µM)	16 (≈ 49.7 µM)	16 (≈ 49.7 µM)	16 (≈ 49.7 µM)	32 (≈ 99.5 µM)	> 128	> 128	64 (≈ 199 µM)
O=[N+]([O-])c1ccc2c(C3CCNCC3)ccnc2c1O [Example 105, 7-nitro-4-(piperidin-4-yl)quinolin-8-ol]			128 (≈ 468 µM)	128 (≈ 468 µM)	128 (≈ 468 µM)		128 (≈ 468 µM)	> 128	128 (≈ 468 µM)
O=[N+]([O-])c1cc(F)c2cccnc2c1O [Example 106, 5-fluoro-7-nitroquinolin-8-ol]			16 (≈ 76.9 µM)	16 (≈ 76.9 µM)	16 (≈ 76.9 µM)		8 (≈ 38.4 µM)	128 (≈ 615 µM)	16 (≈ 76.9 µM)
Cc1c([N+](=O)[O-])c(O)c2ncccc2c1Cl [Example 107, 5-chloro-6-methyl-7-nitroquinolin-8-ol]			4 (≈ 16.8 µM)	8 (≈ 33.5 µM)	8 (≈ 33.5 µM)		64 (≈ 268 µM)	128 (≈ 536 µM)	32 (≈ 134 µM)
O=C(O)C(F)(F)F.O=[N+]([O-])c1cc(C(F)F)c2cccnc2c1O [Example 108, 5-(difluoromethyl)-7-nitroquinolin-8-ol trifluoroacetate]			> 128	> 128	128		> 128	> 128	> 128
O=[N+]([O-])c1cc(CO)c2cccnc2c1O [Example 109, 5-(hydroxymethyl)-7-nitroquinolin-8-ol]			128 (≈ 581 µM)	128 (≈ 581 µM)	64 (≈ 291 µM)		32 (≈ 145 µM)	64 (≈ 291 µM)	64 (≈ 291 µM)

Reference: patent US20240246916A1, “7-NITRO-8-HYDROXYQUINOLINE DERIVATIVES, PREPARATION METHOD THEREFORE AND MEDICAL USE THEREOF” (Jiangsu Yahong Meditech Co., Ltd., priority 2021, published 2024)
